Experimental data: patent publication US10787447B2, “Pharmaceutical compounds” (Heptares Therapeutics Limited, priority 2018, dated 2020)

Legend:
Format in all cases: cell-based
[1] = target: T1, human muscarinic M4 receptor (Homo sapiens, UniProt P08173); test: Alphascreen Surefire phospho-ERK1/2 functional assay, M4; settings: for % Emax cf. ACh, M4: CHO cells stably expressing human M4; for % Emax cf. ACh, M4 / Emax: Emax relative to ACh; for EC50: pEC50 M4, CHO cells stably expressing human M4, phospho-ERK1/2; for Emax: CHO, read-out: % Emax cf. ACh, M4, CHO cells stably expressing human M4
T1 sequence (P08173 1-479): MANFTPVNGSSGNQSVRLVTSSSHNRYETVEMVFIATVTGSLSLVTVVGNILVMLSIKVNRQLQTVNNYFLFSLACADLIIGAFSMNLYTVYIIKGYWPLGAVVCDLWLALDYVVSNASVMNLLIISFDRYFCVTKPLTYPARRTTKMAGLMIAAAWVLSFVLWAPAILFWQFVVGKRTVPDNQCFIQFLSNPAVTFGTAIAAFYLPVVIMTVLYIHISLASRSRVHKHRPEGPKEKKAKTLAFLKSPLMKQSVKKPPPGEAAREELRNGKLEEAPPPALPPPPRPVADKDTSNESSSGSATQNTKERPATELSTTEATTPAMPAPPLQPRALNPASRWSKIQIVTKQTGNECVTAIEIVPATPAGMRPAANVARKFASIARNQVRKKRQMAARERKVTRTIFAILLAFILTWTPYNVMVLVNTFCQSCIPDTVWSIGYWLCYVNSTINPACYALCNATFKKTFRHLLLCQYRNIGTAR
Procedure, shortened: (§1)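 CHO cells stably expressing human M1, M2, M3 or M4 receptor, serum-starved overnight, then stimulated with agonist for 5 min at 37 °C. Cells lysed for 15 min and phospho-ERK1/2 detected in the lysate by AlphaScreen SureFire.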

[2] = target: T2, human muscarinic M1 receptor (Homo sapiens, UniProt P11229); test: Alphascreen Surefire phospho-ERK1/2 functional assay, M1; settings: for % Emax cf. ACh, M1: CHO cells stably expressing human M1; for % Emax cf. ACh, M1 / Emax: Emax relative to ACh; for EC50: pEC50 M1, CHO cells stably expressing human M1, phospho-ERK1/2; for Emax: CHO, read-out: % Emax cf. ACh, M1, CHO cells stably expressing human M1
T2 sequence (P11229 1-460): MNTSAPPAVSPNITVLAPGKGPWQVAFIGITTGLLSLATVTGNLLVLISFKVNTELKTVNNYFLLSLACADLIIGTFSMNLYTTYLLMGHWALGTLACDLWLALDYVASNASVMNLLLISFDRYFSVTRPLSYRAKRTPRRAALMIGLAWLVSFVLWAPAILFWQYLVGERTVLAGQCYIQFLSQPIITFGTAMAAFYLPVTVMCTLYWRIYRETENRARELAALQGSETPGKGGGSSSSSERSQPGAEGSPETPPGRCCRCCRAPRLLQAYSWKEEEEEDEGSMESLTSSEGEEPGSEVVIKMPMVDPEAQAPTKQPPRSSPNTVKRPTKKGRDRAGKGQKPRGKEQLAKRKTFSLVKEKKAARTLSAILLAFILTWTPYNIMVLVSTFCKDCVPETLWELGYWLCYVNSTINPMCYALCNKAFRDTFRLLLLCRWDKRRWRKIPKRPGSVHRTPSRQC
Procedure, shortened: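 Stably transfected CHO cells, serum-starved overnight, then exposed to agonist for 5 min at 37 °C. Cells lysed and phospho-ERK1/2 measured by AlphaScreen SureFire.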

[3] = target: T3, human muscarinic M2 receptor (Homo sapiens, UniProt P08172); test: Alphascreen Surefire phospho-ERK1/2 functional assay, M2; settings: for % Emax cf. ACh, M2: CHO cells stably expressing human M2; for % Emax cf. ACh, M2 / Emax: Emax relative to ACh; for Emax: CHO, read-out: % Emax cf. ACh, M2, CHO cells stably expressing human M2; for EC50: pEC50 M2, CHO cells stably expressing human M2, phospho-ERK1/2
T3 sequence (P08172 1-466): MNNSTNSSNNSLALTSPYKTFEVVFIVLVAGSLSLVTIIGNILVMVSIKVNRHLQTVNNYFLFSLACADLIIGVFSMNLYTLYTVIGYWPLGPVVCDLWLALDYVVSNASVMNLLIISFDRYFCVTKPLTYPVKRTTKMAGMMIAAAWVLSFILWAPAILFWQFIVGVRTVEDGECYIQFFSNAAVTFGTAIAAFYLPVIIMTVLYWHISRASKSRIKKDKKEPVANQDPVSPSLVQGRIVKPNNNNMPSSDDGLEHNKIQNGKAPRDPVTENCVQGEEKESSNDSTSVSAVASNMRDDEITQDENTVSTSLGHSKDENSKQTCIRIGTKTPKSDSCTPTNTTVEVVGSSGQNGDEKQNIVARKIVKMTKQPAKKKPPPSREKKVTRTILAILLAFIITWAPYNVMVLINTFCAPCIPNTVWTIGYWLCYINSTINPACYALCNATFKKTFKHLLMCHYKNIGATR
Procedure, shortened: as §1

[4] = target: T4, human muscarinic M3 receptor (Homo sapiens, UniProt P20309); test: Alphascreen Surefire phospho-ERK1/2 functional assay, M3; settings: for % Emax cf. ACh, M3: CHO cells stably expressing human M3; for % Emax cf. ACh, M3 / Emax: Emax relative to ACh; for Emax: CHO, read-out: % Emax cf. ACh, M3, CHO cells stably expressing human M3; for EC50: pEC50 M3, CHO cells stably expressing human M3, phospho-ERK1/2
T4 construct: expressed in transfected cells
Procedure, shortened: as §1

T4 sequence (P20309 whole entry): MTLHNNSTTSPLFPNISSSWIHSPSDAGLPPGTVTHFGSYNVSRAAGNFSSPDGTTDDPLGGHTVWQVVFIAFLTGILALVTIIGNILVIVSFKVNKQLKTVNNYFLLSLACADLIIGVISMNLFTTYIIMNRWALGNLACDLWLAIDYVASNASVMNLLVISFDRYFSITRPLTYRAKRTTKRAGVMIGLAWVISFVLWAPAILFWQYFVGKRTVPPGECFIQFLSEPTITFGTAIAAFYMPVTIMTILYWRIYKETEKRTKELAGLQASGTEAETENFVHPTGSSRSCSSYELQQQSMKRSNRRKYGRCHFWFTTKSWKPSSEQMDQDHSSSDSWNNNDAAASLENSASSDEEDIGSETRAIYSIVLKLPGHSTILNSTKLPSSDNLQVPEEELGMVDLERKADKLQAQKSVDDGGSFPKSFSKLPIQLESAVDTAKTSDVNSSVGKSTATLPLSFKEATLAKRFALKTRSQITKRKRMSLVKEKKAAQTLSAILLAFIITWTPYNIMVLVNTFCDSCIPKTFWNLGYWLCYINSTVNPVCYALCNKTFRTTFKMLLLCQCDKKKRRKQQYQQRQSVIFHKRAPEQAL

| Compound | EC50 [1] | EC50 [2] | Emax [2] | EC50 [3] | EC50 [4] | further results |
| --- | --- | --- | --- | --- | --- | --- |
| CCOC(=O)N1C2COCC1CC(N1CCC3(CC1)CC3)C2 (single isomer, unassigned) [Example 5-1 Isomer 2, Ethyl 7-(6-azaspiro[2.5]oct-6-yl)-3-oxa-9-azabicyclo[3.3.1]nonane-9-carboxylate] | 33.9 nM | 141 nM | – | – | – | % Emax cf. ACh, M4 ([1]; listed as 5-1 Isomer 2): 41%; % Emax cf. ACh, M1 [2]: 66%; % Emax cf. ACh, M2 [3]: 13%; % Emax cf. ACh, M3 ([4]; listed as 5-1 Isomer 2): 8% |
| CCOC(=O)N1C2COCC1CC(N1CCC(C(=O)NCC3CCC3)CC1)C2 (single isomer, unassigned) [Example 7-3 Isomer 1, Ethyl 7-{4-[(cyclobutylmethyl)carbamoyl]piperidin-1-yl}-3-oxa-9-azabicyclo[3.3.1]nonane-9-carboxylate] | 275 nM | 35.5 nM | 100% | 1480 nM | > 20000 nM | Emax [1]: 97%; Emax [3]: 62%; Emax [4]: 57% |
| CCOC(=O)N1C2COCC1CC(N1CCC(n3cc(C)cn3)CC1)C2 (single isomer, unassigned) [Example 1-3 Isomer 2, Ethyl 7-[4-(4-methyl-1H-pyrazol-1-yl)piperidin-1-yl]-3-oxa-9-azabicyclo[3.3.1]nonane-9-carboxylate] | 112 nM | 316 nM | – | > 20000 nM | > 20000 nM | % Emax cf. ACh, M4 [1]: 81%; % Emax cf. ACh, M1 ([2]; listed as 1-3 Isomer 2): 45%; % Emax cf. ACh, M2 ([3]; listed as 1-3 Isomer 2): 11%; % Emax cf. ACh, M3 ([4]; listed as 1-3 Isomer 2): 5% |
| CCOC(=O)N1C2COCC1CC(N1CCC(N3CC(F)(F)C[C@@H]3CO)CC1)C2 (single isomer, unassigned) [Example 4-1 Isomer 2] | 100 nM | 398 nM | – | > 20000 nM | – | % Emax cf. ACh, M4 ([1]; listed as 4-1 Isomer 2): 59%; % Emax cf. ACh, M1 ([2]; listed as 4-1 Isomer 2): 47%; % Emax cf. ACh, M2 ([3]; listed as 4-1 Isomer 2): 17%; % Emax cf. ACh, M3 ([4]; listed as 4-1 Isomer 2): 4% |
| CCOC(=O)N1C2COCC1CC(N1CCC(n3cc(C)cn3)CC1)C2 (single isomer, unassigned) [Example 1-3 Isomer 1, Ethyl 7-[4-(4-methyl-1H-pyrazol-1-yl)piperidin-1-yl]-3-oxa-9-azabicyclo[3.3.1]nonane-9-carboxylate] | 7.24 nM | 55 nM | – | 282 nM | 2510 nM | Emax [1]: 99%; % Emax cf. ACh, M1 ([2]; listed as 1-3 Isomer 1): 124%; % Emax cf. ACh, M2 ([3]; listed as 1-3 Isomer 1): 112%; % Emax cf. ACh, M3 ([4]; listed as 1-3 Isomer 1): 40% |
| CCOC(=O)N1C2COCC1CC(N1CCC3(CC1)OC(=O)NC3CC)C2 (single isomer, unassigned) [Example 5-4 Isomer 1a, Ethyl 7-(4-ethyl-2-oxo-1-oxa-3,8-diazaspiro[4.5]dec-8-yl)-3-oxa-9-azabicyclo[3.3.1]nonane-9-carboxylate] | 145 nM | 1480 nM | – | > 20000 nM | > 20000 nM | % Emax cf. ACh, M4 ([1]; listed as 5-4 Isomer 1a): 81%; % Emax cf. ACh, M1 ([2]; listed as 5-4 Isomer 1a): 76%; % Emax cf. ACh, M2 ([3]; listed as 5-4 Isomer 1a): 3%; Emax [4]: 2% |
| CCOC(=O)N1C2COCC1CC(N1CCC3(CC1)OC(=O)NC3CC)C2 (single isomer, unassigned) [Example 5-4 Isomer 2b, Ethyl 7-(4-ethyl-2-oxo-1-oxa-3,8-diazaspiro[4.5]dec-8-yl)-3-oxa-9-azabicyclo[3.3.1]nonane-9-carboxylate] | > 20000 nM | 74.1 nM | – | – | – | % Emax cf. ACh, M4 ([1]; listed as 5-4 Isomer 2b): 20%; % Emax cf. ACh, M1 ([2]; listed as 5-4 Isomer 2b): 25%; % Emax cf. ACh, M2 ([3]; listed as 5-4 Isomer 2b): 1%; % Emax cf. ACh, M3 [4]: 4% |
| CCOC(=O)N1C2COCC1CC(N1CCC3(CC1)CC3)C2 (single isomer, unassigned) [Example 5-1 Isomer 1, Ethyl 7-(6-azaspiro[2.5]oct-6-yl)-3-oxa-9-azabicyclo[3.3.1]nonane-9-carboxylate] | > 20000 nM | 72.4 nM | 47% | > 20000 nM | > 20000 nM | % Emax cf. ACh, M4 ([1]; listed as 5-1 Isomer 1): 13%; Emax [3]: 8%; % Emax cf. ACh, M3 ([4]; listed as 5-1 Isomer 1): 0% |
| CCOC(=O)N1C2COCC1CC(N1CCC(N(Cc3ccccc3)C(C)=O)CC1)C2 (single isomer, unassigned) [Example 6-5 Isomer 1, Ethyl 7-{4-[acetyl(benzyl)amino]piperidin-1-yl}-3-oxa-9-azabicyclo[3.3.1]nonane-9-carboxylate] | 302 nM | 166 nM | 92% | > 20000 nM | > 20000 nM | % Emax cf. ACh, M4 ([1]; listed as 6-5 Isomer 1): 50%; % Emax cf. ACh, M2 ([3]; listed as 6-5 Isomer 1): 11%; % Emax cf. ACh, M3 ([4]; listed as 6-5 Isomer 1): 13% |
